Source: PubChem BioAssay AID1238 (The Scripps Research Institute Molecular Screening Center, 2008)
Active and inactive are the calls of the source. How the calls were made is not given here.

Tested on: beta-lactamase reporter cell line, FRET read-out, counterscreen
Experiment: beta-lactamase reporter inhibitors, potency curves, dose response, counter-screen for GALR2 antagonist project, cell-based, FRET readout (AID 1238)

Row | Structure (SMILES) | IC50
1 | CCOC(=O)c1ccc(N2C(=O)CC(N3CCC(O)(c4ccc(Br)cc4)CC3)C2=O)cc1 (stereo not drawn) | > 42 µM (inactive)
2 | O=C(/C=C/Sc1ncn[nH]1)c1ccc(Cl)cc1 | 17 µM (inactive)
3 | O=[N+]([O-])c1cc(-c2ncccn2)c([N+](=O)[O-])s1 | 9.61 µM
4 | Cc1ccc2[nH]c3c(N4CCc5ccccc5C4)ncnc3c2c1 | > 42 µM (inactive)
5 | C1=C(CCNc2ncnc3c2[nH]c2ccccc23)CCCC1 | > 42 µM (inactive)
6 | O=S(=O)(NCc1ccncc1)c1ccc(Br)s1 | > 42 µM (inactive)
7 | c1ccc2c(c1)[nH]c1c(NCC3CCCO3)ncnc12 (stereo not drawn) | > 42 µM (inactive)
8 | CCOC(=O)c1cc([N+](=O)[O-])c([N+](=O)[O-])cc1NC(C)=O | 7.53 µM
9 | Cc1nc2ccc(NC(=O)c3cc(S(=O)(=O)N(C)c4ccccc4)ccc3Cl)cc2s1 | > 42 µM (inactive)
10 | O=C(/C=C/c1ccc(Cl)cc1)NC(=S)Nc1ccc(NC(=O)c2ccco2)cc1 | > 14 µM (inactive)
11 | O=C(Cc1cccs1)Nc1cccc(-c2nc3cc4ccccc4cc3[nH]2)c1 | > 42 µM (inactive)
12 | COc1ccc(CCNc2c(C)c(C)nc3ncnn23)cc1 | > 42 µM (inactive)
13 | CC(=O)c1c(C)[nH]c(C(=O)OCCCCN2C(=O)c3ccccc3C2=O)c1C | > 42 µM (inactive)
14 | N#C/C(=C\c1cccs1)c1nc2ccccc2[nH]1 | > 42 µM (inactive)
15 | Cc1cc(C(=O)CSc2nc3ccccc3[nH]2)c(C)n1CC1CCCO1 (stereo not drawn) | > 42 µM (inactive)
16 | Cc1cccc(C(=O)Nc2ccc(C(=O)/C=C/c3cccnc3)cc2)c1 | 17.9 µM (inactive)
17 | Cc1ccc(S(=O)(=O)CC2CSc3nc4ccccc4n32)cc1 (stereo not drawn) | > 42 µM (inactive)
18 | O=C(Nc1ccc2nc(-c3cccnc3)[nH]c2c1)C12CC3CC(CC(C3)C1)C2 | > 42 µM (inactive)
19 | Cc1nnc(SCC(=O)Nc2cccc(S(=O)(=O)N(C)c3ccccc3)c2)s1 | > 42 µM (inactive)
20 | Cc1ccc(S(=O)(=O)NCc2ccncc2)cc1 | > 42 µM (inactive)
21 | CN(C(=S)NC1CCCCC1)C1(c2ccccc2Cl)CCCCC1=O (stereo not drawn) | > 42 µM (inactive)
22 | CCOC(=O)N1CCN(c2ncnc3c2[nH]c2ccc(F)cc23)CC1 | > 42 µM (inactive)

Row | Structure (SMILES) | IC50
23 | O=C(Cn1ncc(Cl)c(Cl)c1=O)N1CCN(S(=O)(=O)c2ccc3ccccc3c2)CC1 | > 14 µM (inactive)
24 | CCCCOc1ncnc2c1[nH]c1ccc(F)cc12 | > 42 µM (inactive)
25 | Cn1nc(C(C)(C)C)cc1C(=O)NCc1ccc(N2CCCC2=O)cc1 | > 42 µM (inactive)
26 | CCc1ccccc1NC(=O)CN(C)C(=O)Cn1ncc(Cl)c(Cl)c1=O | 17.1 µM (inactive)
27 | c1cnc2c(c1)ccc1cccnc12 | > 42 µM (inactive)
28 | Cc1sc2ncnc(NCCc3ccc(S(N)(=O)=O)cc3)c2c1C | > 42 µM (inactive)
29 | CC(=O)Nc1ccccc1OCC(=O)c1cc(C)n(Cc2cccs2)c1C | > 42 µM (inactive)
30 | CCCOc1ncnc2c1[nH]c1ccccc12 | > 42 µM (inactive)
31 | Cc1cc(Nc2cccc(Cl)c2)nc(NCc2ccccc2)n1 | > 14 µM (inactive)
32 | CCOC(=O)COc1ccc(S(=O)(=O)NCc2ccncc2)cc1 | > 42 µM (inactive)
33 | CN(C)c1ccc(NC2=C(Cl)C(=O)c3ccccc3C2=O)cc1 | > 14 µM (inactive)
34 | CC(=O)c1c(C)[nH]c(C(=O)OCC(=O)Nc2ccc(Cl)cc2[N+](=O)[O-])c1C | > 42 µM (inactive)
35 | CNc1nc2cc([N+](=O)[O-])c([N+](=O)[O-])cc2nc1NC | > 42 µM (inactive)
36 | COC(=O)c1ccc(COC(=O)c2[nH]c(C)c(C(C)=O)c2C)o1 | > 42 µM (inactive)
37 | CCn1c2ccc(C)cc2c2nc3cc(C(=O)O)ccc3nc21 | > 42 µM (inactive)
38 | CCOc1ccc(S(=O)(=O)NCc2ccncc2)cc1 | > 42 µM (inactive)
39 | CC1CCC/C=C/C2CC(O)CC2C(O)/C=C/C(=O)O1 (stereo not drawn) | > 42 µM (inactive)
40 | c1ccc2c(c1)OCC(CNc1ncnc3sccc13)O2 (stereo not drawn) | > 42 µM (inactive)
41 | COc1cc(/C=C/[N+](=O)[O-])ccc1O | 11.1 µM (inactive)
42 | Cc1cc(C)c(S(=O)(=O)NCc2ccncc2)c(C)c1 | > 42 µM (inactive)
43 | CC(=O)SC(C[N+](=O)[O-])c1cn(C(C)=O)c2ccccc12 (stereo not drawn) | 17.1 µM (inactive)
